Measured values: PubChem BioAssay (NCI)
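Tested at 5 concentrations; 48 h exposure; 96-well plates; endpoints linearly interpolated, else capped at highest concentration. TGI: concentration producing complete growth inhibition.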

Assays:
Test in all cases: DTP human tumour cell line panel, 48 h
[1] = test system: 786-0 renal
[2] = test system: A498 renal
[3] = test system: A549 NSCLC
[4] = test system: ACHN renal
[5] = test system: BT-549 breast
[6] = test system: CAKI-1 renal
[7] = test system: CCRF-CEM leukemia
[8] = test system: COLO 205 colon
[9] = test system: DU-145 prostate
[10] = test system: EKVX NSCLC
[11] = test system: HCT-116 colon
[12] = test system: HCT-15 colon
[13] = test system: HL-60(TB) leukemia
[14] = test system: HS 578T breast
[15] = test system: HT29 colon
[16] = test system: IGROV1 ovarian
[17] = test system: K-562 leukemia
[18] = test system: KM12 colon
[19] = test system: M14 melanoma
[20] = test system: MALME-3M melanoma
[21] = test system: MDA-MB-231 breast
[22] = test system: MDA-MB-435
[23] = test system: MDA-N
[24] = test system: MOLT-4 leukemia
[25] = test system: NCI-H226 lung
[26] = test system: NCI-H23 lung
[27] = test system: NCI-H460 lung
[28] = test system: NCI-H522 lung
[29] = test system: NCI/ADR-RES ovarian
[30] = test system: OVCAR-4 ovarian
[31] = test system: OVCAR-5 ovarian
[32] = test system: OVCAR-8 ovarian
[33] = test system: PC-3 prostate
[34] = test system: RPMI-8226 leukemia
[35] = test system: RXF 393 renal
[36] = test system: SF-268 CNS
[37] = test system: SF-295 CNS
[38] = test system: SF-539 CNS
[39] = test system: SK-MEL-2 melanoma
[40] = test system: SK-MEL-28 melanoma
[41] = test system: SK-MEL-5 melanoma
[42] = test system: SK-OV-3 ovarian
[43] = test system: SN12C renal
[44] = test system: SNB-19 CNS
[45] = test system: SNB-75 CNS
[46] = test system: SR leukemia
[47] = test system: SW-620 colon
[48] = test system: T-47D breast
[49] = test system: TK-10 renal
[50] = test system: U251 CNS
[51] = test system: UACC-257 melanoma
[52] = test system: UACC-62 melanoma
[53] = test system: UO-31 renal
[54] = test system: HOP-62 NSCLC
[55] = test system: HOP-92 NSCLC
[56] = test system: LOX IMVI melanoma
[57] = test system: MCF7 breast
[58] = test system: OVCAR-3 ovarian

## N#Cc1c(-c2ccccc2)/c(=C\O)c(=O)n2c1nc1ccccc12
[1]
  TGI: > 100 µM
[2]
  TGI: > 100 µM
[3]
  TGI: > 100 µM
[4]
  TGI: > 100 µM
[5]
  TGI: > 100 µM
[6]
  TGI: > 100 µM
[7]
  TGI: > 100 µM
[8]
  TGI: > 100 µM
[9]
  TGI: > 100 µM
[10]
  TGI: > 100 µM
[11]
  TGI: > 100 µM
[12]
  TGI: > 100 µM
[13]
  TGI: > 100 µM
[14]
  TGI: 91.8 µM
[15]
  TGI: > 100 µM
[16]
  TGI: > 100 µM
[17]
  TGI: > 100 µM
[18]
  TGI: > 100 µM
[19]
  TGI: > 100 µM
[20]
  TGI: > 100 µM
[21]
  TGI: > 100 µM
[22]
  TGI: > 100 µM
[23]
  TGI: > 100 µM
[24]
  TGI: > 100 µM
[25]
  TGI: > 100 µM
[26]
  TGI: > 100 µM
[27]
  TGI: > 100 µM
[28]
  TGI: > 100 µM
[29]
  TGI: > 100 µM
[30]
  TGI: > 100 µM
[31]
  TGI: > 100 µM
[32]
  TGI: > 100 µM
[33]
  TGI: > 100 µM
[34]
  TGI: > 100 µM
[35]
  TGI: > 100 µM
[36]
  TGI: > 100 µM
[37]
  TGI: > 100 µM
[38]
  TGI: > 100 µM
[39]
  TGI: > 100 µM
[40]
  TGI: > 100 µM
[41]
  TGI: > 100 µM
[42]
  TGI: > 100 µM
[43]
  TGI: > 100 µM
[44]
  TGI: > 100 µM
[45]
  TGI: 91.9 µM
[46]
  TGI: > 100 µM
[47]
  TGI: > 100 µM
[48]
  TGI: > 100 µM
[49]
  TGI: > 100 µM
[50]
  TGI: > 100 µM
[51]
  TGI: > 100 µM
[52]
  TGI: > 100 µM
[53]
  TGI: > 100 µM

## COc1ccc(/C=C2\CSC/C(=C\c3ccc(OC)c(OC)c3OC)C2=O)c(OC)c1OC
[1]
  TGI: 48.1 µM
[3]
  TGI: > 100 µM
[4]
  TGI: 52.9 µM
[5]
  TGI: > 100 µM
[7]
  TGI: > 100 µM
[8]
  TGI: > 100 µM
[9]
  TGI: > 100 µM
[10]
  TGI: > 100 µM
[11]
  TGI: 39 µM
[12]
  TGI: 74.1 µM
[13]
  TGI: 72.1 µM
[54]
  TGI: > 100 µM
[55]
  TGI: 96.1 µM
[15]
  TGI: > 100 µM
[16]
  TGI: > 100 µM
[17]
  TGI: > 100 µM
[18]
  TGI: > 100 µM
[56]
  TGI: 83.3 µM
[19]
  TGI: 40.2 µM
[20]
  TGI: 27.6 µM
[57]
  TGI: > 100 µM
[21]
  TGI: > 100 µM
[23]
  TGI: > 100 µM
[25]
  TGI: > 100 µM
[26]
  TGI: > 100 µM
[27]
  TGI: > 100 µM
[29]
  TGI: > 100 µM
[58]
  TGI: > 100 µM
[31]
  TGI: > 100 µM
[32]
  TGI: 80.8 µM
[33]
  TGI: > 100 µM
[34]
  TGI: 67.3 µM
[35]
  TGI: 53.7 µM
[36]
  TGI: > 100 µM
[37]
  TGI: 99.6 µM
[38]
  TGI: 88.6 µM
[39]
  TGI: > 100 µM
[40]
  TGI: > 100 µM
[41]
  TGI: 88.6 µM
[42]
  TGI: > 100 µM
[43]
  TGI: 78.2 µM
[44]
  TGI: > 100 µM
[46]
  TGI: 80.4 µM
[47]
  TGI: 58.6 µM
[48]
  TGI: > 100 µM
[49]
  TGI: > 100 µM
[50]
  TGI: > 100 µM
[51]
  TGI: > 100 µM
[52]
  TGI: 30.4 µM
[53]
  TGI: > 100 µM
